From patent US20230041563A1, “N-(1,3,4-OXADIAZOL-2-YL)ARYLCARBOXAMIDES OR SALTS THEREOF, PREPARATION METHODS, HERBICIDAL COMPOSITIONS AND USES THEREOF” (priority 2018, published 2023) come the findings set out here.

Structures are written as SMILES.

Common to all, as to experiment: Weeding effect in post-emergence stage (greenhouse pot spray)
Holding throughout (assay type): in vivo

The test system of one assay is Echinochloa crusgalli. Particulars: for Echinochloa crusgah (activity level): Table 2, dose 500 g a.i./ha. Put shortly: (§1)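 Greenhouse post-emergence test: compounds were sprayed at 500, 250, 125, 60 and 15 g a.i./ha onto plants 2 weeks after sowing, and fresh weight control rates were averaged from three replicates 3 weeks later.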
The test system of another assay is Setaria viridis. Particulars: Table 3, dose 250 g a.i./ha. The method, boiled down:
as §1

For the next assay, the system named is Abutilon theophrasti. Particulars: Table 2, dose 500 g a.i./ha. Put shortly:
as §1

In a further assay the test system is Digitaria sanguinalis. Particulars: for Digitaria sanguinalis (activity level): Table 2, dose 500 g a.i./ha. The method, boiled down:
as §1

In the next assay the test system is Stellaria media. Particulars: Table 2, dose 500 g a.i./ha. From the text: (§2) The activity level criteria for plant damage (i.e., growth control rate) are as follows:
(§3) The above growth control rates are fresh weight control rates.
(§4) Experiment on weeding effect in post-emergence stage: monocotyledonous and dicotyledonous weed seeds (Descurainia sophia, Capsella bursa-pastoris, Abutilon theophrasti, Galium aparine, Stellaria media, Lithospermum arvense, rorippa indica, Alopecurus aequalis, Beckmannia syzigachne, Sclerochloa dura, Phleum paniculatum, Bromus japonicus, Aegilops tauschii, Phalaris arundinacea, Amaranthus retroflexus, Chenopodiaceae, Commelina communis, Sonchus arvensis, convolvulus arvensis, Cirsium setosum, Solanum nigrum, Acalypha australis, Digitaria sanguinalis, Echinochloa crusgalli, Setaria viridis, Setaria glauca, Leptochloa chinensis, Monochoria vaginalis, Sagittaria trifolia, Scirpus juncoides, Cyperus rotundus, Cyperus iria, Cyperus difformis, Fimbristylis, Portulaca oleracea, Xanthium sibiricum, Pharbitis nil) and major crop seeds (wheat, corn, rice, soybean, cotton, oilseed rape, millet, sorghum, potato, sesame, ricinus) were placed in plastic pots filled with soil, then covered with 0.5-2 cm of soil, allowed to grow in a good greenhouse environment. After 2 weeks of sowing, the test plants were treated in the 2 to 3 leaf stage. The tested compounds of the present invention were respectively dissolved in acetone, then added with Tween 80 and 1.5 liter/ha of emulsifiable concentrate of methyl oleate as synergist, diluted with a certain amount of water to obtain a solution with a certain concentration, and sprayed with a spray tower onto the plants. After the application, the plants were cultured for 3 weeks in the greenhouse, and then the experimental results of the weeding were counted. The doses of the used compounds were 500, 250, 125, 60, 15 g a.i./ha, and the averages were obtained by repeating for three times.

The subject of another assay is Amaranthus retroflexus. Particulars: Table 2, dose 500 g a.i./ha.
Source text: as §2, §3, §4

On to `CCSc1c(C(F)(F)F)ccc(C(=O)Nc2nnco2)c1F` [Compound 3-4], for which, in the assay on Echinochloa crusgalli, the “Echinochloa crusgah (activity level)” value was 5 (Level 5: growth control rate is above 85%). In addition, the “Echinochloa crusgali (activity level)” value with Echinochloa crusgalli (Table 3, dose 250 g a.i./ha) is reported as 5 (Level 5: growth control rate is above 85%). Further, in the assay with Setaria viridis, the “Setaria viridis (activity level)” value was 5 (Level 5: growth control rate is above 85%). In addition, the “Abutilion theophrasti (activity level)” value in the assay on Abutilon theophrasti was 5 (Level 5: growth control rate is above 85%). In the assay on Digitaria sanguinalis, the “Digitaria sanguinalis (activity level)” value is 5 (Level 5: growth control rate is above 85%). In addition, the “Digitaria sanguinahs (activity level)” value in the assay on Digitaria sanguinalis (Table 3, dose 250 g a.i./ha) was 5 (Level 5: growth control rate is above 85%). Moreover, the “Stellaria media (activity level)” value in the assay with Stellaria media is listed as 5 (Level 5: growth control rate is above 85%). In addition, in the assay with Amaranthus retroflexus, the “Amaranthus retroflexus (activity level)” value was 5 (Level 5: growth control rate is above 85%).

On to `CC(C)[S+]([O-])c1c(C(F)(F)F)ccc(C(=O)Nc2nnco2)c1F` (stereo not drawn) [Compound 3-11], for which the “Echinochloa crusgah (activity level)” value with Echinochloa crusgalli was 5 (Level 5: growth control rate is above 85%). Besides, in the assay with Abutilon theophrasti, the “Abutilion theophrasti (activity level)” value is given as 5 (Level 5: growth control rate is above 85%). Further, the “Digitaria sanguinalis (activity level)” value in the assay with Digitaria sanguinalis is 5 (Level 5: growth control rate is above 85%). Also, in the assay with Stellaria media, the “Stellaria media (activity level)” value is 5 (Level 5: growth control rate is above 85%). In addition, in the assay on Amaranthus retroflexus, the “Amaranthus retroflexus (activity level)” value is 5 (Level 5: growth control rate is above 85%).

Turning to `CCCC[S+]([O-])c1c(C(F)(F)F)ccc(C(=O)Nc2nnco2)c1F` (stereo not drawn) [Compound 3-14], in the assay on Echinochloa crusgalli, the “Echinochloa crusgah (activity level)” value is 5 (Level 5: growth control rate is above 85%). For the same molecule, the “Abutilion theophrasti (activity level)” value in the assay with Abutilon theophrasti is on record as 5 (Level 5: growth control rate is above 85%). Moreover, the “Digitaria sanguinalis (activity level)” value with Digitaria sanguinalis is reported as 5 (Level 5: growth control rate is above 85%). For the same molecule, the “Stellaria media (activity level)” value in the assay with Stellaria media was 5 (Level 5: growth control rate is above 85%). Moreover, the “Amaranthus retroflexus (activity level)” value with Amaranthus retroflexus was 5 (Level 5: growth control rate is above 85%).

For `CCC(C)[S+]([O-])c1c(C(F)(F)F)ccc(C(=O)Nc2nnco2)c1F` (stereo not drawn) [Compound 3-17], the “Echinochloa crusgah (activity level)” value with Echinochloa crusgalli is 5 (Level 5: growth control rate is above 85%). For the same molecule, the “Abutilion theophrasti (activity level)” value in the assay with Abutilon theophrasti is given as 5 (Level 5: growth control rate is above 85%). For the same molecule, in the assay with Digitaria sanguinalis, the “Digitaria sanguinalis (activity level)” value is listed as 5 (Level 5: growth control rate is above 85%). In the assay with Stellaria media, the “Stellaria media (activity level)” value is 5 (Level 5: growth control rate is above 85%). For the same molecule, in the assay on Amaranthus retroflexus, the “Amaranthus retroflexus (activity level)” value is on record as 5 (Level 5: growth control rate is above 85%).

`O=C(Nc1nnco1)c1ccc(C(F)(F)F)c([S+]([O-])CCC(F)(F)F)c1F` (stereo not drawn) [Compound 3-52]: the “Echinochloa crusgah (activity level)” value in the assay on Echinochloa crusgalli is given as 5 (Level 5: growth control rate is above 85%). In the assay with Abutilon theophrasti, the “Abutilion theophrasti (activity level)” value is recorded as 5 (Level 5: growth control rate is above 85%). Also, the “Digitaria sanguinalis (activity level)” value in the assay with Digitaria sanguinalis was 5 (Level 5: growth control rate is above 85%). Also, in the assay on Stellaria media, the “Stellaria media (activity level)” value was 5 (Level 5: growth control rate is above 85%). Further, the “Amaranthus retroflexus (activity level)” value in the assay on Amaranthus retroflexus is 5 (Level 5: growth control rate is above 85%).

Regarding `COCC[S+]([O-])c1c(C(F)(F)F)ccc(C(=O)Nc2nnco2)c1F` (stereo not drawn) [Compound 3-57], the “Echinochloa crusgah (activity level)” value in the assay with Echinochloa crusgalli is on record as 5 (Level 5: growth control rate is above 85%). Moreover, in the assay on Abutilon theophrasti, the “Abutilion theophrasti (activity level)” value is reported as 5 (Level 5: growth control rate is above 85%). Also, in the assay with Digitaria sanguinalis, the “Digitaria sanguinalis (activity level)” value is on record as 5 (Level 5: growth control rate is above 85%). Besides, the “Stellaria media (activity level)” value in the assay with Stellaria media is 5 (Level 5: growth control rate is above 85%). Further, in the assay with Amaranthus retroflexus, the “Amaranthus retroflexus (activity level)” value is 5 (Level 5: growth control rate is above 85%).
